This passage reports IC50 results from patent US7875633B2, “Phenylpyridone derivative” (Banyu Pharmaceutical Co., Ltd., priority 2005, dated 2011).

In this assay the target is T1, human MCH-1R (Homo sapiens, UniProt Q99705).
T1 construct: expressed in transfected cells; host or cells: CHO-K1 (American Type Culture Collection); membrane samples
In words: MCH binding inhibition test. The following applies: membranes of MCH-1R expressing CHO-K1 cells, 50 pM [125I]MCH, 25° C., one hour, pH 7.4; read-out: IC50 (50% inhibition concentration to the specific [125I]MCH binding). From the text:
Pharmacological Test Example 1 (MCH Binding Inhibition Test)
A human MCH-1R encoding cDNA sequence [FEBS Letters, Vol. 398, 253 (1996); Biochimica et Biophisica Acta, Vol. 1401, 216 (1998)] was cloned to a plasmid vector pEF/myc/cyto (Invitrogen Corporation). The obtained expression vector was transfected to host cells CHO-K1 (American Type Culture Collection) using Lipofectamine Plus Reagent (Life Technology Inc.) to provide MCH-1R expression cells.
Membrane samples prepared from the MCH-1R expression cells were incubated with each test compound and 50 pM of [^125I]MCH (NEN Co.), in an assay buffer (50 mM Tris buffer comprising 10 mM magnesium chloride, 2 mM ethylenediamine tetraacetate, 0.01% bacitracin and 0.2% bovine serum albumin; pH 7.4) at 25° C. for an hour, followed by filtration through a glass filter GF/C (Wattman Co.). After washing the glass filter with 50 mM Tris buffer (pH 7.4) comprising 10 mM magnesium chloride, 2 mM ethylenediamine tetraacetate and 0.04% Tween-20, the radioactive activity on the glass filter was measured. The non-specific binding was measured in the presence of 1 μM human MCH and 50% inhibition concentration (IC50 value) of each test compound to the specific [^125I]MCH binding was determined.

Molecules are shown by their SMILES.

T1 sequence (Q99705 whole entry): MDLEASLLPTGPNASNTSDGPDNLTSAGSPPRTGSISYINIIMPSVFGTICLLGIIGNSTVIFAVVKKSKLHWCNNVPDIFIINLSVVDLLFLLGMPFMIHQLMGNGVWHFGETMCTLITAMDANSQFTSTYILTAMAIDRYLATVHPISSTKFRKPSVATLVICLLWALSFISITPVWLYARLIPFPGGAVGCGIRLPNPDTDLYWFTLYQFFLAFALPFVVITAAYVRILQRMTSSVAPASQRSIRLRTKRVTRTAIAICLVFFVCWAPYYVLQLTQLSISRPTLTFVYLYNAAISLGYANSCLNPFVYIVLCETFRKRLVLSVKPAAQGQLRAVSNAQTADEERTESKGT

Take `CN(C)C/C=C/c1ccc(-n2ccc(OCc3ccc(Cl)cc3)cc2=O)cc1` [Example 8, 4-[(4-Chlorobenzyl)oxy]-1-(4-[(1E)-3-(dimethylamino)-1-propen-1-yl]phenyl)pyridin-2(1H)-one]: the IC50 is 1.4 nM.

For `CCN(CC)CCc1ccc(-n2ccc(OCc3ccc(Cl)cn3)cc2=O)cc1` [Example 32, 4-[(5-Chloropyridin-2-yl)methoxy]-1-{4-[2-(diethylamino)ethyl]phenyl}pyridin-2(1H)-one], the IC50 was found to be 6.2 nM.

Regarding `O=c1cc(OCc2ccc(Cl)cn2)ccn1-c1ccc(CCNC2CCCC2)cc1` [Example 37, 4-[(5-Chloropyridin-2-yl)methoxy]-1-{4-[(2-cyclopentylamino)ethyl]phenyl}pyridin-2(1H)-one], the IC50 was 4.6 nM.

As to `O=c1cc(OCc2ccc(F)cc2)ccn1-c1ccc(NCCN2CCCC2)cc1` [Example 14, 4-[(4-Fluorobenzyl)oxy]-1-{4-[(2-pyrrolidin-1-ylethyl)amino]phenyl}pyridin-2(1H)-one], the IC50 stood at 4.5 nM.

As to `CCN(C)C/C=C/c1ccc(-n2ccc(OCc3ccc(Cl)cc3)cc2=O)cc1` [Example 3, 4-[(4-Chlorobenzyl)oxy]-1-(4-{(1E)-3-[ethyl(methyl)amino]-1-propen-1-yl}phenyl)pyridin-2(1H)-one], the IC50 is 1.5 nM.

Take `CCCN(C)C/C=C/c1ccc(-n2ccc(OCc3ccc(Cl)cc3)cc2=O)cc1` [Example 4, 4-[(4-Chlorobenzyl)oxy]-1-(4-{(1E)-3-[propyl(methyl)amino]-1-propen-1-yl}phenyl)pyridin-2(1H)-one]: the IC50 was 1.2 nM.

For `O=c1cc(OCc2ccc(F)cc2)ccn1-c1ccc([C@H]2C[C@H](N3CCCC3)C2)cc1` [Example 53, 4-[(4-Fluorobenzyl)oxy]-1-[4-(trans-3-pyrrolidin-1-ylcyclobutyl)phenyl]pyridin-2(1H)-one], the IC50 turned out to be 3.5 nM.

Take `CC(C)N(C)C/C=C/c1ccc(-n2ccc(OCc3ccc(Cl)cc3)cc2=O)cc1` [Example 5, 4-[(4-Chlorobenzyl)oxy]-1-(4-{(1E)-3-[isopropyl(methyl)amino]-1-propen-1-yl]phenyl}pyridin-2(1H)-one]: the IC50 was 1.4 nM.

As for `CO[C@H]1CCN(CCc2ccc(-n3ccc(OCc4ccc(F)cc4)cc3=O)cc2)C1` [Example 27, 4-[(4-Fluorobenzyl)oxy]-1-(4-{2-[(3S)-3-methoxypyrrolidin-1-yl]ethyl}phenyl)pyridin-2(1H)-one], the IC50 stood at 5.8 nM.

Turning to `CCCCN(C)C/C=C/c1ccc(-n2ccc(OCc3ccc(Cl)cc3)cc2=O)cc1` [Example 6, 4-[(4-Chlorobenzyl)oxy]-1-(4-{(1E)-3-[butyl(methyl)amino]-1-propen-1-yl}phenyl)pyridin-2(1H)-one], the IC50 was found to be 0.93 nM.
